{"source": "patent US9422254B2", "about": "“Methoxyacrylate-based fungicide and methods for preparing and using the same” (priority 2008, dated 2016)", "key": {"[1]": {"system": "Pseudoperonospora cubensis", "test": "Fungicidal activity on potted cucumber, downy mildew", "type": "in vivo", "description": "(§1) 1. Fungicidal Activity Assay on Potted Plants at Room Temperature\n(§2) Take cucumber downy mildew and powdery mildew as examples, the assay were carried out as follows:\n1) Pseudoperonospora cubensis: Pathogen of Cucumber Downy Mildew\nTwo cucumber seedlings (the growing point had been removed) having the same growth status and in the true leaf stage were collected, sprayed with the compound of Formula (I), and dried naturally for 24 hrs for inoculation. Fresh cucumber leaves infected by downy mildew were collected, and sporangium on the back was rinsed with distilled water (about 10° C.) dipped with a brush. The obtained sporangium was prepared into a suspension (2-3×10^5 cells/mL). The suspension was sprayed uniformly with an inoculation sprayer (0.1 MPa) to the naturally-dried cucumber seedlings. Subsequently, the seedlings were cultured in an artificial climate chamber. The relative humidity was maintained at 100%, with temperature of between 15 and 20° C. 24 hrs later, the relative humidity was maintained at 90%, with temperature of between 15 and 24° C. 5 days later, compared with the control, the disease of the cucumber seedlings was graded. Based on the resultant disease index, the efficacy was calculated.\n(§3) The grading standard follows “Guidelines on efficacy evaluation of pesticides”, and the efficacy is calculated on the basis of the disease index."}, "Sphaerotheca uliginea": {"system": "Sphaerotheca uliginea", "test": "Fungicidal activity on potted cucumber, powdery mildew", "type": "in vivo", "description": "as §1, §2\n2) Sphaerotheca uliginea: Pathogen of Cucumber Powdery Mildew\nA cucumber seedling having uniform growth status and in the true leaf stage was collected, sprayed with the compound of Formula (I), and dried in the shade for 24 hrs. Fresh spore was collected from cucumber leaves infected by Sphaerotheca uliginea, filtered with a double-layer gauze, and prepared into a suspension (1.0×10^5 cells/mL). The suspension was sprayed to the dried cucumber seedling. Subsequently, the inoculated seedling was dried naturally and cultured under light in a thermostatic chamber (21-23° C.). 7-8 days later, compared with the blank control, the disease of the cucumber seedlings was graded. Based on the resultant disease index, the efficacy was calculated.\nas §3"}, "[2]": {"system": "Rhizoctonia solani (rice sheath blight)", "test": "microbe, parasite or virus in culture", "type": "cell-based", "settings": "read-out: Inhibition rate (%)"}, "Pyricularia oryzae": {"system": "Pyricularia oryzae", "test": "microbe, parasite or virus in culture", "type": "cell-based", "settings": "read-out: Inhibition rate (%)"}, "Helminthosporum maydis": {"system": "Helminthosporum maydis", "test": "organism not typed", "type": "cell-based"}, "Alternaria solani": {"system": "Alternaria solani", "test": "microbe, parasite or virus in culture", "type": "cell-based", "settings": "read-out: Inhibition rate (%)"}, "Alternaria alternata": {"system": "Alternaria alternata", "test": "microbe, parasite or virus in culture", "type": "cell-based", "settings": "read-out: Inhibition rate (%)"}, "Cercospora arachidicola": {"system": "Cercospora arachidicola", "test": "microbe, parasite or virus in culture", "type": "cell-based", "settings": "Mycosphaerella arachidis, read-out: Inhibition rate (%)"}, "[3]": {"system": "Cucumber brown spot (strain SDHGHB060509)", "test": "In vivo micro-screening assay", "text": "3. In Vivo Micro-Screening Assay"}, "rabbit's skin": {"system": "rabbit's skin", "test": "Skin stimulation test", "type": "in vivo", "description": "The toxicological indexes of the compound were tested following the standard GB15670-1995 “Toxicological test methods of pesticides for registration” by Tongji Medical College, Huazhong University of Science and Technology."}, "[4]": {"test": "Acute toxicity test on zebra fish", "settings": "in vivo", "description": "(§4) After acute toxicity and Ames test had been finished, environmental toxicity test was conducted following “Guideline for Environmental Safety Evaluation of Chemical Pesticides” of Agriculture Ministry of China by Shenyang Chemical Research Institute/Supervision and Test Center for Pesticide Safety Evaluation and Quality Control."}, "quail": {"system": "quail", "test": "Acute oral toxicity test on quail", "type": "in vivo", "description": "as §4"}, "NADH oxidase (NOX)": {"biological_target": "NADH oxidase (NOX) (Sus scrofa, UniProt P24964)", "sequence (P24964 whole entry)": "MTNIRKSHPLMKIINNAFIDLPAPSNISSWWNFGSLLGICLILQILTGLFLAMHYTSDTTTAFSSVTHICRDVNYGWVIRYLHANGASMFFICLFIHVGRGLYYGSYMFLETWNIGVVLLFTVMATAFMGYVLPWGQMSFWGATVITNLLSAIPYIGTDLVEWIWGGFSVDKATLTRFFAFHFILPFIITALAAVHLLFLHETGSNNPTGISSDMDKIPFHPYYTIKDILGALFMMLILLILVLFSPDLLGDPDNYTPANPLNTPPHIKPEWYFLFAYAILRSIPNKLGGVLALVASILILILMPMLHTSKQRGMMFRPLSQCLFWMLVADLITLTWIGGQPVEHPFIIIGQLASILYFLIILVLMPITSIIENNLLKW", "test": "Enzyme activity test, NOX", "type": "biochemical", "settings": "azoxystrobin as control agent", "description": "(§5) Take NADH oxidase (NOX), succinate-cytochrome C oxidase (SCO), and Complex III as target enzymes, the inhibitory activity of the compound of Formula (I) was tested.\n^a NOX is generally used to detect an inhibitor of Complex I and Complex III; SCO is generally used to detect an inhibitor of Complex II and Complex III. Thus, an inhibitor of Complex III should have inhibitory activity on the two enzymes."}, "[5]": {"biological_target": "T1, cytochrome bc1 complex of pig heart (Sus scrofa, UniProt P24964)", "T1 construct": "The test target is cytochrome bc1 complex of pig heart; from tissue; host or cells: pig heart", "T1 sequence (P24964 whole entry, one chain of several)": "as the sequence (P24964 whole entry) above", "test": "Enzyme activity test, Complex III", "type": "biochemical", "description": "as §5\n^b The test target is cytochrome bc1 complex of pig heart."}, "[6]": {"system": "Cucumber gray mold (F-109)", "test": "In vivo micro-screening assay", "procedure": "(§6) To further study the fungicidal spectrum of the compound of Formula (I), indoor in vivo micro-screening assay were carried out on cucumber gray mold, cucumber scab, cucumber sclerotinia rot, cucumber brown spot, pepper phytophthora blight, and rice sheath blight.\n(§7) Medicament to be tested and medicament of control groups were prepared as needed in a sunny morning. Cucumber gray mold, cucumber scab, cucumber brown spot, cucumber sclerotinia rot, and rice sheath blight were medicated by spray, and after air dry, pathogens of cucumber scab and of cucumber brown spot were inoculated through spraying spore suspension respectively, pathogens of cucumber gray mold, of cucumber sclerotinia rot, and of rice sheath blight were inoculated through lawn foliage. Pepper phytophthora blight was medicated and inoculated by root-irrigation. Subsequently, all seedlings were cultured in wet environment.\n(§8) After the disease of control groups were serious, spot area, disease index, and the diseased seedling rate were investigated to calculate the efficacy. Cucumber scab, cucumber brown spot, and pepper phytophthora blight were investigated by grading method. The spot extension area of cucumber gray mold and of rice sheath blight was investigated. The diseased seedling rate of cucumber sclerotinia rot was investigated. Disease index=Σ(amount of infected diseased leaves in a grade×relative value of the grade)×100/(total amount of leaves×9); Diseased seedling rate (%)=(total amount of seedlings−amount of diseased seedlings)/total amount of seedlings×100% Prevention and treatment effect (%)=(disease of control group−disease of experiment group)/disease of control group×100%"}, "[7]": {"system": "Cucumber gray mold (Q503001)", "test": "In vivo micro-screening assay", "procedure": "as §6, §7, §8"}, "[8]": {"settings": "3.125 mg/L, secondary screening"}, "[9]": {"settings": "Pseudoperonospora cubensis, secondary screening"}}, "data": [{"smiles": "CO/C=C(/C(=O)OC)c1ccccc1CSc1nc2cc(OC)ccc2s1", "note": "[Compound of Formula (I), (E)-methyl 3-methoxy-2-(2-((5-methoxy-benzothiazol-2-ylthio)methyl)phenyl)acrylate]", "values": [{"measurement": "Efficacy (%)", "setting": "[1]; [8]", "result": 69.92, "unit": "%"}, {"measurement": "Efficacy (%)", "setting": "[1]; 6.25 mg/L, secondary screening", "result": 82.89, "unit": "%"}, {"measurement": "Efficacy (%)", "setting": "[1]; 12.5 mg/L, Table 1", "result": 87.34, "unit": "%"}, {"measurement": "Efficacy (%)", "setting": "[1]; 12.5 mg/L, secondary screening", "result": 91.50, "unit": "%"}, {"measurement": "Efficacy (%)", "setting": "[1]; 25 mg/L, Table 1", "result": 94.16, "unit": "%"}, {"measurement": "Efficacy (%)", "setting": "[1]; 25 mg/L, secondary screening", "result": 98.15, "unit": "%"}, {"measurement": "Efficacy (%)", "setting": "[1]; 50 mg/L, Table 1", "result": 100, "unit": "%"}, {"measurement": "Efficacy (%)", "setting": "[1]; 50 mg/L, secondary screening", "result": 100, "unit": "%"}, {"measurement": "Efficacy (%)", "setting": "[1]; 100 mg/L, Table 1", "result": 100, "unit": "%"}, {"measurement": "Efficacy (%)", "setting": "[1]; 200 mg/L, Table 1", "result": 100, "unit": "%"}, {"measurement": "EC50", "setting": "[1]; [9]", "result": 1.52, "unit": "µg/mL"}, {"measurement": "EC90", "setting": "[1]; [9]", "result": 9.76, "unit": "µg/mL"}, {"measurement": "preventive effect", "setting": "[1]; downy mildew", "result": "good preventive effect"}, {"measurement": "Efficacy (%)", "setting": "Sphaerotheca uliginea; [8]", "result": 85.24, "unit": "%"}, {"measurement": "Efficacy (%)", "setting": "Sphaerotheca uliginea; 6.25 mg/L, secondary screening", "result": 97.22, "unit": "%"}, {"measurement": "Efficacy (%)", "setting": "Sphaerotheca uliginea; 12.5 mg/L, Table 1", "result": 97.22, "unit": "%"}, {"measurement": "Efficacy (%)", "setting": "Sphaerotheca uliginea; 12.5 mg/L, secondary screening", "result": 98.50, "unit": "%"}, {"measurement": "Efficacy (%)", "setting": "Sphaerotheca uliginea; 25 mg/L, Table 1", "result": 100, "unit": "%"}, {"measurement": "Efficacy (%)", "setting": "Sphaerotheca uliginea; 25 mg/L, secondary screening", "result": 100, "unit": "%"}, {"measurement": "Efficacy (%)", "setting": "Sphaerotheca uliginea; 50 mg/L, Table 1", "result": 100, "unit": "%"}, {"measurement": "Efficacy (%)", "setting": "Sphaerotheca uliginea; 50 mg/L, secondary screening", "result": 100, "unit": "%"}, {"measurement": "Efficacy (%)", "setting": "Sphaerotheca uliginea; 100 mg/L, Table 1", "result": 100, "unit": "%"}, {"measurement": "Efficacy (%)", "setting": "Sphaerotheca uliginea; 200 mg/L, Table 1", "result": 100, "unit": "%"}, {"measurement": "preventive effect", "setting": "Sphaerotheca uliginea; powdery mildew", "result": "good preventive effect"}, {"measurement": "EC50", "setting": "Sphaerotheca uliginea; secondary screening", "result": 0.96, "unit": "µg/mL"}, {"measurement": "EC90", "setting": "Sphaerotheca uliginea; secondary screening", "result": 3.87, "unit": "µg/mL"}, {"measurement": "inhibition at 0.3 µg/mL", "setting": "[2]; 0.3 mg/L", "result": 42.7, "unit": "%"}, {"measurement": "inhibition at 3 µg/mL", "setting": "[2]; 3 mg/L", "result": 62.1, "unit": "%"}, {"measurement": "inhibition at 30 µg/mL", "setting": "[2]; 30 mg/L", "result": 68.9, "unit": "%"}, {"measurement": "inhibition at 0.3 µg/mL", "setting": "Pyricularia oryzae", "result": 23.6, "unit": "%"}, {"measurement": "inhibition at 3 µg/mL", "setting": "Pyricularia oryzae", "result": 56.5, "unit": "%"}, {"measurement": "inhibition at 30 µg/mL", "setting": "Pyricularia oryzae", "result": 82.6, "unit": "%"}, {"measurement": "in vitro effect", "setting": "Helminthosporum maydis", "result": "particularly effective"}, {"measurement": "inhibition at 0.3 µg/mL", "setting": "Helminthosporum maydis; 0.3 mg/L, read-out: Inhibition rate (%)", "result": 86.1, "unit": "%"}, {"measurement": "inhibition at 3 µg/mL", "setting": "Helminthosporum maydis; 3 mg/L, read-out: Inhibition rate (%)", "result": 100, "unit": "%"}, {"measurement": "inhibition at 30 µg/mL", "setting": "Helminthosporum maydis; 30 mg/L, read-out: Inhibition rate (%)", "result": 100, "unit": "%"}, {"measurement": "inhibition at 0.3 µg/mL", "setting": "Alternaria solani; 0.3 mg/L", "result": 32.4, "unit": "%"}, {"measurement": "inhibition at 3 µg/mL", "setting": "Alternaria solani; 3 mg/L", "result": 39.2, "unit": "%"}, {"measurement": "inhibition at 30 µg/mL", "setting": "Alternaria solani; 30 mg/L", "result": 43.9, "unit": "%"}, {"measurement": "inhibition at 0.3 µg/mL", "setting": "Alternaria alternata; 0.3 mg/L", "result": 37.2, "unit": "%"}, {"measurement": "inhibition at 3 µg/mL", "setting": "Alternaria alternata; 3 mg/L", "result": 41.8, "unit": "%"}, {"measurement": "inhibition at 30 µg/mL", "setting": "Alternaria alternata; 30 mg/L", "result": 43.1, "unit": "%"}, {"measurement": "inhibition at 0.3 µg/mL", "setting": "Cercospora arachidicola; 0.3 mg/L", "result": 30.9, "unit": "%"}, {"measurement": "inhibition at 3 µg/mL", "setting": "Cercospora arachidicola; 3 mg/L", "result": 35.7, "unit": "%"}, {"measurement": "inhibition at 30 µg/mL", "setting": "Cercospora arachidicola; 30 mg/L", "result": 40.5, "unit": "%"}, {"measurement": "prevention and treatment effect", "setting": "[3]", "result": "good prevention and treatment effect"}, {"measurement": "Disease index", "setting": "[3]; 100 mg/L", "result": 6.11}, {"measurement": "Efficacy (%)", "setting": "[3]; 100 mg/L", "result": 85.00, "unit": "%"}, {"measurement": "Disease index", "setting": "[3]; 500 mg/L", "result": 4.44}, {"measurement": "Efficacy (%)", "setting": "[3]; 500 mg/L", "result": 89.10, "unit": "%"}, {"measurement": "Skin stimulation", "setting": "rabbit's skin", "result": "No stimulation on rabbit's skin"}, {"measurement": "LC50 at 24 h", "setting": "[4]; 24 hrs", "result": 0.069, "unit": "µg/mL"}, {"measurement": "LC50 at 48 h", "setting": "[4]; 48 hrs", "result": 0.06, "unit": "µg/mL"}, {"measurement": "LC50 at 72 h", "setting": "[4]; 72 hrs", "result": 0.047, "unit": "µg/mL"}, {"measurement": "LC50 at 96 h", "setting": "[4]; 96 hrs", "result": 0.043, "unit": "µg/mL"}, {"measurement": "LC50", "setting": "quail", "result": "LC50 > 1100 mg/kg.bw"}, {"measurement": "inhibitory activity on NOX compared with azoxystrobin", "setting": "NADH oxidase (NOX)", "result": "much higher inhibitory activity"}, {"measurement": "IC50", "setting": "[5]", "result": 4, "unit": "nM"}, {"measurement": "inhibitory activity on Complex III compared with azoxystrobin", "setting": "[5]; azoxystrobin as control agent", "result": "much higher inhibitory activity"}, {"measurement": "Efficacy (%)", "setting": "[6]; 100 mg/L", "result": 92.19, "unit": "%"}, {"measurement": "Spot area (mm^2)", "setting": "[6]; 100 mg/L", "result": 8.03, "unit": "mm^2"}, {"measurement": "Efficacy (%)", "setting": "[6]; 500 mg/L", "result": 96.43, "unit": "%"}, {"measurement": "Spot area (mm^2)", "setting": "[6]; 500 mg/L", "result": 3.67, "unit": "mm^2"}, {"measurement": "prevention and treatment effect", "setting": "[6]; cucumber gray mold, strains not distinguished", "result": "good prevention and treatment effect"}, {"measurement": "Efficacy (%)", "setting": "[7]; 100 mg/L", "result": 93.69, "unit": "%"}, {"measurement": "Spot area (mm^2)", "setting": "[7]; 100 mg/L", "result": 7.78, "unit": "mm^2"}, {"measurement": "Efficacy (%)", "setting": "[7]; 500 mg/L", "result": 97.71, "unit": "%"}, {"measurement": "Spot area (mm^2)", "setting": "[7]; 500 mg/L", "result": 2.82, "unit": "mm^2"}]}]}
